Like-named read-outs stand apart in the source and are kept apart here.
Tests used:
COVID-19 patients = test system: COVID-19 patients; parameters: method as in PMID 34914868; details: patients with mild and moderate COVID-19; cited from earlier work
[1] = biological target: SARS-CoV-2 main protease (M^Pro) (Severe acute respiratory syndrome coronavirus 2, UniProt P0DTD1); test: In vitro M^Pro enzymatic inhibition with fluorogenic substrate Sub3; type: biochemical; details: 20 nM M^Pro, 10 μM Sub3, 30 min preincubation; read-out: Enzymatic IC50
[2] = biological target: M^Pro-eGFP fusion protein in 293T cells (Severe acute respiratory syndrome coronavirus 2, UniProt P0DTD1); test: cell-based; parameters: species or system SARS-CoV-2
[3] = In vitro metabolic stability in human liver microsomes; details: pH 7.4
Cytotoxicity, MTT assay = type: cell-based; details: human, HEK293T cells, 293T cells
Protocol: Because of their high antiviral potency, MPI60 and MPI61 were advanced to characterizations of cytotoxicity and in vitro metabolic stability. For the cytotoxicity characterization, we used 293T cells and the MTT assay.[42] […] These CC50 values are similar to that of nirmatrelvir and lead to high calculated selectivity indices (CC50/antiviral EC50) for both compounds. The in vitro metabolic stability analysis for MPI60 and MPI61 was conducted using human liver microsomes.
HEK293T cells were seeded in 96-well plates and incubated at 37 °C and 5% CO2 for 24 h. The cells were then treated with different concentrations (200, 100, 50, 25, 12.5, 6.25, 3.125, 1.5625, 0.78125, and 0 μM) of the tested compound in triplicate for 48 h. Cell viability was assessed by the MTT assay to determine CC50. For the MTT assay, 20 μL MTT (5 mg/mL) was added to each well and incubated with cells for 4 h. After that, the supernatant was removed, and 200 μL DMSO was added per well. The absorbance was recorded at 490 nm. The CC50 value was determined by plotting the normalized cell viability (%) against the compound concentration.
Figure S5. Cytotoxicity curves of MPI60 and MPI61 in 293T cells tested by the MTT assay.
(1 picture or pasted object on this page, not shown here)

Structure (SMILES)	reduced the risk of hospitalization and death compared to placebo (COVID-19 patients)	IC50 [1]	EC50 ([2]; read-out: Cellular EC50)	EC50 ([2]; read-out: cellular EC50)	CLint scaled at 5 μM [3]	half-life at 5 μM [3]	CC50 at 48 h (Cytotoxicity, MTT assay)
CC(C)C(=O)OC[C@H]1O[C@@H](n2ccc(NO)nc2=O)[C@H](O)[C@@H]1O [molnupiravir]	50%						
O=C[C@H](C[C@@H]1CCNC1=O)NC(=O)C1CC2(CCCCC2)CN1C(=O)OCc1ccccc1 (stereo partly drawn) [MPI61, Benzyl 3-(((S)-1-Oxo-3-((S)-2-oxopyrrolidin-3-yl)propan-2-yl)carbamoyl)-2-azaspiro[4.5]decane-2-carboxylate]		49 nM	85 nM	< 100 nM	45 mL/min/kg	38 min	230000 nM

From PMC10861299, “A Systematic Survey of Reversibly Covalent Dipeptidyl Inhibitors of the SARS-CoV-2 Main Protease” (Journal of Medicinal Chemistry, 2023)
